We go through 9 compounds from ChEMBL document CHEMBL1151897, “Limazepines A-F, pyrrolo[1,4]benzodiazepine Antibiotics from an Indonesian Micrococcus sp” (2009).

SMILES strings stand for the structures. Calls of active or inactive are those of the source. The rule behind the calls is not given here.

The subject of experiment [1] is Staphylococcus aureus. Kind of experiment: Antibacterial activity against Staphylococcus aureus at 1 ug/disk. Type of experiment: functional. The note with it: read-out: IZ.
Another experiment deals with Rhizomucor miehei. Nature of the experiment: Antifungal activity against Mucor miehei. In kind it is functional, organism-based.
The test system of the next experiment is Bacillus subtilis. Nature of the experiment: Antibacterial activity against Bacillus subtilis. Type of experiment: functional, organism-based.
Experiment [2] deals with Escherichia coli. Kind of experiment: Antibacterial activity against Escherichia coli at 1 ug/disk. In kind it is functional. The note with it: read-out: IZ.
The next experiment concerns Candida albicans. Nature of the experiment: Antifungal activity against Candida albicans. Type of experiment: functional, organism-based.
Experiment [3] relates to Pseudomonas aeruginosa. Kind of experiment: Antibacterial activity against Pseudomonas aeruginosa at 1 ug/disk. In kind it is functional. As to conditions: read-out: IZ.
For experiment [4], the system named is Pseudomonas aeruginosa. Nature of the experiment: Antibacterial activity against Pseudomonas aeruginosa at 40 ug/disk. In kind it is functional, organism-based.
Experiment [5] relates to Escherichia coli. Nature of the experiment: Antibacterial activity against Escherichia coli at 40 ug/disk. In kind it is functional. The note with it: for zone of inhibition at 40 µg/disc: read-out: IZ.
Experiment [6] relates to Staphylococcus aureus. Kind of experiment: Antibacterial activity against Staphylococcus aureus at 40 ug/disk. Type of experiment: functional. The note with it: for zone of inhibition at 40 µg/disc: read-out: IZ.
Experiment [7] has as its system Staphylococcus aureus. Nature of the experiment: Antibacterial activity against Staphylococcus aureus at 30 ug/disk. As to conditions: for zone of inhibition at 30 µg/disc: read-out: IZ. Type of experiment: functional.
The test system of experiment [8] is Pseudomonas aeruginosa. Kind of experiment: Antibacterial activity against Pseudomonas aeruginosa at 30 ug/disk. In kind it is functional.
Experiment [9] concerns Escherichia coli. Kind of experiment: Antibacterial activity against Escherichia coli at 30 ug/disk. In kind it is functional, organism-based.
In experiment [10] the test system is Pseudomonas aeruginosa. Nature of the experiment: Antibacterial activity against Pseudomonas aeruginosa at 24 ug/disk. In kind it is functional, organism-based.
For experiment [11], the system named is Staphylococcus aureus. Kind of experiment: Antibacterial activity against Staphylococcus aureus at 24 ug/disk. Type of experiment: functional, organism-based.
Experiment [12] deals with Escherichia coli. Nature of the experiment: Antibacterial activity against Escherichia coli at 24 ug/disk. In kind it is functional, organism-based.

Turning to `CC1(C)S[C@@H]2[C@H](NC(=O)[C@H](N)c3ccccc3)C(=O)N2[C@H]1C(=O)O` [AMPICILLIN], the zone of inhibition at 1 µg/disc with Staphylococcus aureus [1] worked out at 13 mm; with Escherichia coli [2], 25 mm; in the experiment with Pseudomonas aeruginosa [3] it was 30 mm. Also, the result in the experiment with Rhizomucor miehei, in the experiment with Bacillus subtilis and in the experiment on Candida albicans was inactive.
Consider `C/C=C1\C[C@H]2C=Nc3c(ccc(OC)c3O)C(=O)N2C1` [LIMAZEPINE E], for which the “inhibition zone (IZ)” value in the experiment on Pseudomonas aeruginosa [4] was “inactive”. Also, the outcome with Rhizomucor miehei, in the experiment with Bacillus subtilis and with Candida albicans was inactive. The zone of inhibition at 40 µg/disc with Escherichia coli [5] was 10 mm; with Staphylococcus aureus [6], 12 mm.
In the case of `COC(=O)c1ccc(OC)c(O)c1N`, the zone of inhibition at 30 µg/disc in the experiment on Staphylococcus aureus [7] amounted to 11 mm. The result with Rhizomucor miehei, in the experiment with Bacillus subtilis and with Candida albicans was inactive. Further, the “inhibition zone (IZ)” value with Pseudomonas aeruginosa [8] and in the experiment on Escherichia coli [9] was “inactive” each time.
In the case of `CCc1cc2cnc3c(O)c(OC)ccc3c(=O)n2c1` [LIMAZEPINE D], the zone of inhibition at 30 µg/disc was 7 mm in the experiment with Staphylococcus aureus [7] and 9 mm in the experiment with Pseudomonas aeruginosa [8] (read-out: IZ). Also, the outcome with Rhizomucor miehei, in the experiment with Bacillus subtilis and in the experiment on Candida albicans was inactive. Further, in the experiment with Escherichia coli [9], the “inhibition zone (IZ)” value is “inactive”.
As for `CCc1c[nH]c(C=O)c1`, the result in the experiment on Rhizomucor miehei, in the experiment on Bacillus subtilis and in the experiment on Candida albicans was inactive. The “inhibition zone (IZ)” value in the experiment on Pseudomonas aeruginosa [10], in the experiment with Staphylococcus aureus [11] and in the experiment on Escherichia coli [12] was “inactive” each time.
For the compound `CCC1=CN2C(=O)c3ccc(OC)c(O)c3N=C[C@@H]2C1` [LIMAZEPINE C], the “inhibition zone (IZ)” value with Pseudomonas aeruginosa [4] is “inactive”. The outcome in the experiment with Rhizomucor miehei, in the experiment on Bacillus subtilis and in the experiment with Candida albicans was inactive. In addition, the zone of inhibition at 40 µg/disc in the experiment with Escherichia coli [5] turned out to be 10 mm; in the experiment with Staphylococcus aureus [6], 18 mm.
For the compound `CCC1=CN2C(=O)c3ccc(OC)c(O)c3NC(=O)[C@@H]2C1`, the “inhibition zone (IZ)” value in the experiment with Pseudomonas aeruginosa [4], in the experiment on Escherichia coli [5] and in the experiment with Staphylococcus aureus [6] was “inactive” each time. Besides, the outcome with Rhizomucor miehei, in the experiment with Bacillus subtilis and with Candida albicans was inactive.
Turning to `C/C=C1\C[C@H]2[C@@H](O)Nc3ccccc3C(=O)N2C1`, the “inhibition zone (IZ)” value in the experiment with Staphylococcus aureus [7], in the experiment on Pseudomonas aeruginosa [8] and with Escherichia coli [9] was “inactive” in each case. Further, the outcome in the experiment on Rhizomucor miehei, in the experiment on Bacillus subtilis and in the experiment on Candida albicans was inactive.
Regarding `C/C=C1\C[C@H]2C=Nc3ccccc3C(=O)N2C1`, the “inhibition zone (IZ)” value in the experiment on Staphylococcus aureus [7], with Pseudomonas aeruginosa [8] and with Escherichia coli [9] was “inactive” each time. The result in the experiment on Rhizomucor miehei, in the experiment on Bacillus subtilis and in the experiment on Candida albicans was inactive.
